≈ marks a conversion by molar mass, not a printed value. Read-outs that look alike come from different tables or passages of the source.
Tests used:
S.aureus UC-570 = assay: Minimum Inhibitory Concentration, microplate broth-dilution, S. aureus UC-570; conditions: for MIC: Staphylococcus aureus
S.lutea UC-130 = assay: Dipped disc agar diffusion assay, S. lutea; conditions: for zone of inhibition at 1000 µg/mL: Micrococcus luteus, UC130, 16 h
S.pyrogenes UC-152 = assay: Minimum Inhibitory Concentration, microplate broth-dilution, S. pyrogenes UC-152; conditions: for MIC S.pyrogenes UC-152: BHI broth
S.aureus UC-746 = assay: Minimum Inhibitory Concentration, microplate broth-dilution, S. aureus UC-746; conditions: for MIC: Staphylococcus aureus
S.aureus UC-76 = assay: Minimum Inhibitory Concentration, microplate broth-dilution, S. aureus UC-76; conditions: for MIC: Staphylococcus aureus; for MIC S.aureus UC-76: BHI broth
S.aureus UC 80 = assay: Dipped disc agar diffusion assay, S. aureus; conditions: for zone of inhibition at 1000 µg/mL: Staphylococcus aureus, UC80, 16 h
[1] = Solubility noted in the MIC determination; conditions: BHI broth
B. fragilis = assay: Antibiotic activity against B. fragilis; type: cell-based
C. perfringens = type: cell-based
K. pneumoniae = assay: Antibiotic activity against K. pneumoniae; type: cell-based
S. lutea = assay: Antibiotic activity against S. lutea; type: cell-based
Mycobacterium avium = assay: Antibiotic activity against Mycobacterium avium; type: cell-based
[2] = UC570, read-out: MIC S.aureus UC-570
[3] = read-out: Agar Diffusion 1 mg./ml. S.lutea UC-130 (inhibition zone)
[4] = read-out: MIC S.pyrogenes UC-152
[5] = UC746, read-out: MIC S.aureus UC-746
[6] = UC76, read-out: MIC S.aureus UC-76
[7] = read-out: Agar Diffusion 1 mg./ml. S.aureus UC 80 (inhibition zone)
[8] = read-out: zone of inhibition, S. lutea
[9] = read-out: MIC S.pyrogenes UC-152, BHI broth
[10] = UC76, read-out: MIC S.aureus UC-76, BHI broth, sensitive strain
[11] = read-out: Agar Diffusion 1 mg./ml. S.aureus UC 80 (inhibition zone), 1 mg./ml., 12.7 mm paper disc, 16 hours
[12] = UC570, read-out: MIC S.aureus UC-570, BHI broth, sensitive strain
[13] = UC746, read-out: MIC S.aureus UC-746, BHI broth, strain resistant to tetracycline

Row | Compound | MIC (S.aureus UC-570; [2]) [µg/mL] | zone of inhibition at 1000 µg/mL (S.lutea UC-130; [3]) [mm] | MIC (S.pyrogenes UC-152; [4]) [µg/mL] | MIC (S.aureus UC-746; [5]) [µg/mL] | MIC (S.aureus UC-76; [6]) [µg/mL] | MIC (S.pyrogenes UC-152; [9]) [µg/mL] | further results
1 | COC1CC2C=CC3C4OC2(C(C)=CC(C)C(C(C)O)OC1=O)C3C(O)C(C)C4OC(=O)c1ccccn1 (stereo not shown) [U-60,909, 9-O--Picolinoyl-] | > 250 | 31 | > 250 | > 250 | > 250 |  | 
2 | COC1CC2C=CC3C4OC2(C(C)=CC(C)C(C(C)O)OC1=O)C3C(O)C(C)C4OC(=O)c1cccs1 (stereo not shown) [U-60,989, 9-O--Thiophene-2-carbonyl-] | 3.9 (≈ 7.32 µM) | 41 | 125 (≈ 235 µM) | 3.9 (≈ 7.32 µM) | 3.9 (≈ 7.32 µM) |  | zone of inhibition at 1000 µg/mL (S.aureus UC 80; [7]): 27 mm
3 | COC1CC2C=CC3C4OC2(C(C)=CC(C)C(C(C)O)OC1=O)C3C(O)C(C)C4OC(=O)c1cccnc1 (stereo not shown) [U-60,906, 9-O--Nicotinoyl-] | 250 (≈ 474 µM) | 32 | 2500 (≈ 4740 µM) | 250 (≈ 474 µM) | 250 (≈ 474 µM) |  | 
4 | COC1CC2C=CC3C4OC2(C(C)=CC(C)C(C(C)O)OC1=O)C3C(O)C(C)C4OC(=O)c1ccccc1 (stereo not shown) [9-O--benzoyl-, 9-O-benzoyl-nodusmicin] |  | 30 |  |  |  |  | zone of inhibition at 1000 µg/mL (S.lutea UC-130; [8]): 30 mm; insoluble [1]: insoluble
5 | COC1CC2C=CC3C4OC2(C(C)=CC(C)C(C(C)O)OC1=O)C3C(O)C(C)C4OC(=O)c1ccc[nH]1 (stereo not shown) [U-59,760, 9-O-pyrrole-2-carbonyl ester of nodusmicin, reference compound] |  | 44 |  |  |  | > 125 | MIC S.pyrogenes UC-152 (S.pyrogenes UC-152): 62.5 µg/mL (≈ 121 µM); MIC S.aureus UC-76 (S.aureus UC-76; sensitive strain): 0.125 µg/mL (≈ 0.242 µM); MIC (S.aureus UC-76; [10]): 0.0625 µg/mL (≈ 0.121 µM); Agar Diffusion 1 mg./ml. S.aureus UC 80 (inhibition zone) (S.aureus UC 80; 12.7 mm paper disc, 16 hours): 38; zone of inhibition at 1000 µg/mL (S.aureus UC 80; [11]): 37 mm
6 | 9-O--3-Furoyl- [U-61,461] |  |  |  |  |  |  | MIC S.aureus UC-570 (S.aureus UC-570; BHI broth, sensitive strain): 0.25 µg/mL; Agar Diffusion 1 mg./ml. S.lutea UC-130 (inhibition zone) (S.lutea UC-130; 1 mg./ml., 12.7 mm paper disc, 16 hours): 41; MIC S.pyrogenes UC-152 (S.pyrogenes UC-152): 2.50 µg/mL; MIC S.aureus UC-746 (S.aureus UC-746; BHI broth, strain resistant to tetracycline): 0.50 µg/mL; MIC S.aureus UC-76 (S.aureus UC-76; sensitive strain): 0.50 µg/mL; Agar Diffusion 1 mg./ml. S.aureus UC 80 (inhibition zone) (S.aureus UC 80; 12.7 mm paper disc, 16 hours): 35
7 | COC1CC2C=CC3C4OC2(C(C)=CC(C)C(C(C)O)OC1=O)C3C(O)C(C)C4OC(=O)c1cnccn1 (stereo not shown) [U-61,264, 9-O--Pyrrazine-2-carbonyl] | > 125 | 27 | > 125 | > 125 | > 125 |  | 
8 | COC1CC2C=CC3C4OC2(C(C)=CC(C)C(C(C)O)OC1=O)C3C(O)C(C)C4OC(=O)c1ccncc1 (stereo not shown) [U-60,925, 9-O--Isonicotinoyl] | 250 (≈ 474 µM) | 38 | > 250 | 250 (≈ 474 µM) | 250 (≈ 474 µM) |  | 
9 | COC1CC2C=CC3C4OC2(C(C)=CC(C)C(C(C)OC(=O)c2ccc[nH]2)OC1=O)C3C(O)C(C)C4OC(=O)c1ccc[nH]1 (stereo not shown) [U-60,908, 9,18-O--Dipyrrole-2-carbonyl-] |  | 29 |  |  |  |  | insoluble [1]: insoluble; zone of inhibition at 1000 µg/mL (S.aureus UC 80; [11]): 24 mm
10 | COC1CC2C=CC3C4OC2(C(C)=CC(C)C(C(C)O)OC1=O)C3C(O)C(C)C4OC(=O)c1ccco1 (stereo not shown) [U-60,898, 9-O--Furoyl-] | 7.8 (≈ 15.1 µM) | 40 | > 250 | 7.8 (≈ 15.1 µM) | 7.8 (≈ 15.1 µM) |  | zone of inhibition at 1000 µg/mL (S.aureus UC 80; [7]): 30 mm
11 | COC1CC2C=CC3C4OC2(C(C)=CC(C)C(C(C)OC(=O)c2ccccc2)OC1=O)C3C(O)C(C)C4O (stereo not shown) [18-O--benzoyl-, 18-O-benzoyl-nodusmicin] |  |  |  |  |  |  | insoluble [1]: insoluble
12 | COC1CC2C=CC3C4OC2(C(C)=CC(C)C(C(C)O)OC1=O)C3C(O)C(C)C4OC(=O)c1ccc([N+](=O)[O-])o1 (stereo not shown) [U-60,990, 9-O--5-Nitrofuroyl] | 31.2 (≈ 55.6 µM) | 33 | 125 (≈ 223 µM) | 62.5 (≈ 111 µM) | 31.2 (≈ 55.6 µM) |  | 
13 | COC1CC2C=CC3C4OC2(C(C)=CC(C)C(C(C)OC(=O)c2ccc[nH]2)OC1=O)C3C(O)C(C)C4O (stereo not shown) [U-60,907, 18-O--Pyrrole-2-carbonyl] |  | 33 |  |  |  | > 250 | MIC (S.aureus UC-570; [12]): 3.9 µg/mL (≈ 7.56 µM); MIC (S.aureus UC-746; [13]): 15.6 µg/mL (≈ 30.3 µM); MIC (S.aureus UC-76; [10]): 7.8 µg/mL (≈ 15.1 µM); zone of inhibition at 1000 µg/mL (S.aureus UC 80; [11]): 27 mm
14 | COC1CC2C=CC3C4OC2(C(C)=CC(C)C(C(C)O)OC1=O)C3C(O)C(C)C4OC(=O)c1cc([N+](=O)[O-])c[nH]1 (stereo not shown) [U-61,462, 9-O--4-Nitropyrrole-2-carbonyl-] |  | 36 |  |  |  | 125 (≈ 223 µM) | MIC (S.aureus UC-570; [12]): 31.2 µg/mL (≈ 55.7 µM); MIC (S.aureus UC-746; [13]): 31.2 µg/mL (≈ 55.7 µM); MIC (S.aureus UC-76; [10]): 15.6 µg/mL (≈ 27.8 µM); zone of inhibition at 1000 µg/mL (S.aureus UC 80; [11]): 20 mm
15 | COC1CC2C=CC3C4OC2(C(C)=CC(C)C(C(C)O)OC1=O)C3C(O)C(C)C4OC(=O)c1ccsc1 (stereo not shown) [U-60,910, 9-O-Thiophene-3-carbonyl-nodusmicin] | 0.25 (≈ 0.469 µM) | 40 |  | 0.5 (≈ 0.939 µM) | 0.5 (≈ 0.939 µM) | 125 (≈ 235 µM) | zone of inhibition at 1000 µg/mL (S.lutea UC-130; [8]): 40 mm; zone of inhibition at 1000 µg/mL (S.aureus UC 80; [11]): 35 mm; zone of inhibition at 1000 µg/mL (S.aureus UC 80; read-out: zone of inhibition, S. aureus, 1 mg./ml., 0.5 inch disc, agar tray, strain not stated): 35 mm
16 | COC1CC2C=CC3C4OC2(C(C)=CC(C)C(C(C)O)OC1=O)C3C(O)C(C)C4OC(=O)[C@@H]1CCCN1 (stereo partly drawn) [U-60,933, 9-O--L-Pyrolyl-] | 62.5 (≈ 120 µM) | 38 | > 250 | 62.5 (≈ 120 µM) | 31.2 (≈ 60 µM) |  | zone of inhibition at 1000 µg/mL (S.aureus UC 80; [7]): 16 mm
17 | COC1CC2C=CC3C4OC2(C(C)=CC(C)C(C(C)O)OC1=O)C3C(O)C(C)C4OC(=O)c1cccn1C (stereo not shown) [U-60,988, 9-O--N--Methylpyrrole-2-carbonyl-] |  | 24 |  |  |  | 125 (≈ 236 µM) | MIC (S.aureus UC-570; [12]): > 250 µg/mL; MIC (S.aureus UC-746; [13]): 250 µg/mL (≈ 472 µM); MIC (S.aureus UC-76; [10]): 250 µg/mL (≈ 472 µM)
18 | COC1CC2C=CC3C4OC2(C(C)=CC(C)C(C(C)O)OC1=O)C3C(O)C(C)C4OC(=O)c1cc2ccccc2[nH]1 (stereo not shown) [U-61,273, 9-O--Indole-2-carbonyl-] |  | 22 |  |  |  |  | insoluble [1]: insoluble
19 | COC1CC2C=CC3C4OC2(C(C)=CC(C)C(C(C)O)OC1=O)C3C(O)C(C)C4O (stereo not shown) [U-59,761, nodusmicin] |  | 40 |  |  |  | 500 (≈ 1180 µM) | activity against B. fragilis (B. fragilis): active; activity against C. perfringens (C. perfringens): active; MIC (S.aureus UC-570; [12]): 250 µg/mL (≈ 592 µM); MIC (S.aureus UC-746; [13]): 250 µg/mL (≈ 592 µM); activity against K. pneumoniae (K. pneumoniae): active; activity against S. lutea (S. lutea): active; MIC (S.aureus UC-76; [10]): 125 µg/mL (≈ 296 µM); activity against Mycobacterium avium (Mycobacterium avium): active
20 | COC1CC2C=CC3C4OC2(C(C)=CC(C)C(C(C)O)OC1=O)C3C(O)C(C)C4OC(=O)c1ccc(C)[nH]1 (stereo not shown) [U-61,265, 9-O--5-Methylpyrrole-2-carbonyl] | 31.2 (≈ 58.9 µM) | 30 | 125 (≈ 236 µM) | 31.2 (≈ 58.9 µM) | 31.2 (≈ 58.9 µM) |  | zone of inhibition at 1000 µg/mL (S.aureus UC 80; [7]): 20 mm
21 | COC1CC2C=CC3C4OC2(C(C)=CC(C)C(C(C)O)OC1=O)C3C(OC(=O)c1ccco1)C(C)C4O (stereo not shown) [U-60,905, 11-O--Furoyl-] | 500 (≈ 968 µM) | 17 | > 500 | 500 (≈ 968 µM) | 500 (≈ 968 µM) |  | 
22 | COC1CC2C=CC3C4OC2(C(C)=CC(C)C(C(C)O)OC1=O)C3C(O)C(C)C4OC(=O)c1ccc([N+](=O)[O-])[nH]1 (stereo not shown) [U-61,427, 9-O--5-Nitropyrrole-2-carbonyl-] |  | 32 |  |  |  | 250 (≈ 446 µM) | MIC (S.aureus UC-570; [12]): 250 µg/mL (≈ 446 µM); MIC (S.aureus UC-746; [13]): 125 µg/mL (≈ 223 µM); MIC (S.aureus UC-76; [10]): 125 µg/mL (≈ 223 µM)
23 | COC1CC2C=CC3C4OC2(C(C)=CC(C)C(C(C)O)OC1=O)C3C(O)C(C)C4OC(=O)c1ccc(Br)o1 (stereo not shown) [U-61,463, 9-O--5-Bromofuroyl-] |  | 35 |  |  |  |  | zone of inhibition at 1000 µg/mL (S.aureus UC 80; [7]): 0 mm
